Measured values taken from patent US20110028345A1, “METHODS TO CHARACTERIZE CELL REPROGRAMMING AND USES THEREOF” (CORNING INCORPORATED, priority 2009, published 2011).
Ends that are not written are not given here.

Key:
[1] = system: differentiated ReNcell cells (endogenous dopamine receptors); assay: Epic RWG biosensor DMR assay on the neuronal cell system differentiated from ReNcell VM; type: cell-based, human; conditions: for DMR signal upon stimulation: differentiated ReNcell cells, PD128907 and A68930 16 micromolar, dopamine 128 micromolar (FIG. 7A-C); for receptor to which the DMR signal is attributed: same doses as FIG. 7A-C
Description: For cell assay on Epic, undifferentiated cells were typically seeded using ˜3×10^3 cells per well in 50 μl of the corresponding culture medium in the biosensor microplate freshly coated with laminin, and were cultured at 37° C. under air/5% CO2. […] The medium was replaced with fresh ReNcell NSC Maintenance Medium every 2-3 days for 10 days. The confluency for all cells at the time of assays was ˜95% to 100%.
(§1) For biosensor cellular assays, compound solutions were made by diluting the stored concentrated solutions with the HBSS (1× Hanks balanced salt solution, plus 20 mM Hepes, pH 7.1), and transferred into a 384 well polypropylene compound storage plate to prepare a compound source plate. […] Afterwards, a 2 to 10 min continuous recording was carried out to establish a baseline, and to ensure that the cells reached a steady state.

[2] = system: undifferentiated and differentiated ReN cells; assay: DMR marker panel profiling, differentiated versus undifferentiated ReN cells; type: cell-based, human; conditions: markers at 10 μM (dopamine and glucagons like peptide 128 μM); FIG. 9-11
Description: The confluency for all cells at the time of assays was ˜95% to 100%.
as §1

[3] = system: ReNcell progenitor cells; conditions: 128 micromolar
Description: Afterwards, a 2 to 10 min continuous recording was carried out to establish a baseline, and to ensure that the cells reached a steady state. Cellular responses were then triggered by transferring 10 μl of the compound solutions into the cell assay plate using the on-board liquid handler.
Epic® wavelength interrogation system (Corning Inc., Corning, N.Y.) was used for whole cell sensing. This system consists of a temperature-control unit, an optical detection unit, and an on-board liquid handling unit with robotics. The detection unit is centered on integrated fiber optics, and enables kinetic measures of cellular responses with a time interval of ˜15 sec. The compound solutions were introduced by using the on-board liquid handling unit (i.e., pippetting).
For biosensor cellular assays, compound solutions were made by diluting the stored concentrated solutions with the HBSS (1× Hanks balanced salt solution, plus 20 mM Hepes, pH 7.1), and transferred into a 384 well polypropylene compound storage plate to prepare a compound source plate. Two compound source plates were made separately when a two-step assay was performed. […] Both the cell assay plate and the compound source plate(s) were then incubated in the hotel of the reader system. After incubation the baseline wavelengths of all biosensors in the cell assay microplate were recorded and normalized to zero. […]

[4] = system: A549 cell; assay: Modulation of marker-induced biosensor (DMR) responses in A549 cell; type: cell-based
Source text: (§2) A “modulation profile” or like terms is the comparison between a secondary profile of the marker in the presence of a molecule and the primary profile of the marker in the absence of any molecule. The comparison can be by, for example, subtracting the primary profile from secondary profile or subtracting the secondary profile from the primary profile or normalizing the secondary profile against the primary profile.
(§3) A “molecule modulation index” or like terms is an index to display the ability of the molecule to modulate the biosensor output signals of the panels of markers acting on the panel of cells. The modulation index is generated by normalizing a specific biosensor output signal parameter of a response of a cell upon stimulation with a marker in the presence of a molecule against that in the absence of any molecule.
(§4) Alternatively, different scores can be given for a type of modulation but with different scales. For example, a positive modulation of 10%, 20%, 30%, 40%, 50%, 60%, 100%, 200%, etc, can be given a score of +1, +2, +3, +4, +5, +6, +10, +20, correspondingly. Conversely, for negative modulation, similar but in opposite score can be given. […] Thus, the score of HA1077 modulation index in coordination can be assigned as (0, 0.5, −0.6, 0, −2.3, 0.6, 0, −6.8, 0.4, −3.6, −0.5, −1.6). Once a molecular index is generated, the molecular index can be compared with a library of known modulators to determine the mode(s) of action of the molecule of interest. […] Beside its indicative power of a DMR index for pharmacology of a molecule, a molecule DMR index can also be used to distinguish the cellular background of different types of cells.

[5] = system: quiescent A431 cells; assay: Modulation of marker-induced biosensor (DMR) responses in quiescent A431 cells; type: cell-based
Source text: as §2, §3, §4

NC[C@@H]1O[C@H](c2ccccc2)Cc2c1ccc(O)c2O [A68930]
DMR signal upon stimulation [1]: small but reproducible DMR signal | receptor to which the DMR signal is attributed ([1]; differentiated cells): triggered a DMR signal specifically to the endogenous D1 receptor

Nc1ncnc2c1ncn2[C@@H]1O[C@H](COP(=O)(O)OP(=O)(O)O)[C@@H](O)[C@H]1O [ADP]
specificity of the marker DMR signal for the differentiation state [2]: non-specific to both the undifferentiated and differentiated ReN cells

Nc1ncnc2c1ncn2[C@@H]1O[C@H](COP(=O)(O)OP(=O)(O)OP(=O)(O)O)[C@@H](O)[C@H]1O [ATP]
specificity of the marker DMR signal for the differentiation state [2]: specific to the differentiated ReN cells

NCCCC(=O)O [GABA]
specificity of the marker DMR signal for the differentiation state [2]: non-specific to both the undifferentiated and differentiated ReN cells

CCCN1CCO[C@@H]2c3cc(O)ccc3OC[C@H]21 [PD128907]
DMR signal upon stimulation [1]: small but reproducible DMR signal | receptor to which the DMR signal is attributed ([1]; differentiated cells): activated another endogenous dopamine receptor (possibly D2 receptor)

O=c1ccn([C@@H]2O[C@H](COP(=O)(O)OP(=O)(O)O)[C@@H](O)[C@H]2O)c(=O)[nH]1 [UDP]
specificity of the marker DMR signal for the differentiation state [2]: specific to the differentiated ReN cells

O=c1ccn([C@@H]2O[C@H](COP(=O)(O)OP(=O)(O)OP(=O)(O)O)[C@@H](O)[C@H]2O)c(=O)[nH]1 [UTP]
specificity of the marker DMR signal for the differentiation state [2]: specific to the undifferentiated cells

Nc1ncnc2c1ncn2[C@@H]1O[C@H](CO)[C@@H](O)[C@H]1O [adenosine]
specificity of the marker DMR signal for the differentiation state [2]: specific to the differentiated ReN cells

NCCc1ccc(O)c(O)c1 [dopamine]
DMR signal 10 days after differentiation and maturation ([1]; 128 micromolar, 10 days after differentiation (FIG. 8D)): distinct DMR signal which contains additional contributions from endogenous D1 receptors | dose dependence of the DMR signal ([1]; amplitudes 50 min after stimulation as a function of concentration (FIG. 7D)): biphasic dose-dependent DMR signal | DMR signal upon stimulation [1]: small but reproducible DMR signal | DMR signal at high doses ([1]; differentiated cells, high doses): close to the simple sum of both A68390 and PD129807 DMR signals | DMR signal at low doses ([1]; differentiated cells, low doses (<4000 nM)): DMR signal similar to that induced by A68390 | receptor to which the DMR signal is attributed ([1]; differentiated cells): can activate both D1 and D2 receptors | DMR signal 3 hr after attachment ([3]; 3 hr after attachment on laminin coated biosensor surface (FIG. 8B)): small but reproduced DMR signal | DMR signal after 4 days undifferentiated culture ([3]; 4 days in growth factor rich medium (FIG. 8C)): distinct DMR signal (FIG. 8C), which was confirmed to be due to the activation of the endogenous D2 receptor | specificity of the marker DMR signal for the differentiation state [2]: non-specific to both the undifferentiated and differentiated ReN cells

NCCCNCCCCNCCCN [spermine]
specificity of the marker DMR signal for the differentiation state [2]: specific to the differentiated ReN cells

NCCc1ccc(O)cc1 [tyramine]
specificity of the marker DMR signal for the differentiation state [2]: specific to the undifferentiated cells

N#CC(C#N)=C(N)/C(C#N)=C/c1cc(O)c(O)c(O)c1 [tyrphostin 51]
modulation of the biosensor response induced by PMA ([4]; marker PMA): −6% | modulation of the biosensor response induced by SLIGKV-amide ([4]; marker SLIGKV-amide): 0% | modulation of the biosensor response induced by forskolin ([4]; marker forskolin): −23% | modulation of the histamine early response ([4]; marker histamine, early response): +6% | modulation of the histamine late response ([4]; marker histamine, late response): 0% | modulation of the biosensor response induced by pinacidil ([4]; marker pinacidil): 0% | modulation of the biosensor response induced by poly (I:C) ([4]; marker poly (I:C)): +5% | mode of action concluded from the biosensor index ([5]; EGFR inhibitor (EGF DMR in A431) and PDE4 inhibitor (epinephrine, histamine in A431; forskolin in A549)): displays polypharmacology | modulation of the EGF N-DMR ([5]; quiescent A431 cells, marker EGF, N-DMR): −5% | modulation of the EGF P-DMR ([5]; quiescent A431 cells, marker EGF, P-DMR): −36% | modulation of the biosensor response induced by epinephrine ([5]; quiescent A431 cells, marker epinephrine): −68% | modulation of the biosensor response induced by histamine ([5]; quiescent A431 cells, marker histamine): −16% | modulation of the biosensor response induced by nicotinic acid ([5]; quiescent A431 cells, marker nicotinic acid): +4%

Neuropeptide Y
specificity of the marker DMR signal for the differentiation state [2]: specific to the differentiated ReN cells

SFLLR-amide
specificity of the marker DMR signal for the differentiation state [2]: specific to the differentiated ReN cells

alpha-melanocyte-stimulating hormone (SYSMEHFRWGKPV; ends and bridges not checked; UniProt P01189 138-150, looked up) [MCH receptor agonist]
specificity of the marker DMR signal for the differentiation state [2]: non-specific to both the undifferentiated and differentiated ReN cells

angiotensin II (DRVYIHPF; Angiotensin-2; UniProt P01019 25-32, looked up) [ATII receptor angiotensin II]
specificity of the marker DMR signal for the differentiation state [2]: specific to the undifferentiated cells

apelin
specificity of the marker DMR signal for the differentiation state [2]: non-specific to both the undifferentiated and differentiated ReN cells

dynorphin A (YGGFLRRIRPKLKWDNQ; Dynorphin A(1-17); UniProt P01213 207-223, looked up) [opioid receptor agonist]
specificity of the marker DMR signal for the differentiation state [2]: specific to the differentiated ReN cells

endothelin 1 (CSCSSLMDKECVYFCHLDIIW; ends and bridges not checked; cysteine pairing not given here; UniProt P05305 53-73, looked up) [endothelin receptor agonist]
specificity of the marker DMR signal for the differentiation state [2]: specific to the differentiated ReN cells

glucagons like peptide
specificity of the marker DMR signal for the differentiation state [2]: specific to the undifferentiated cells

lysophosphatidic acid
specificity of the marker DMR signal for the differentiation state [2]: specific to the undifferentiated cells

neuropeptide B-23 (WYKPAAGHSSYSVGRAAGLLSGLR; ends and bridges not checked; UniProt Q8NG41 25-48, looked up) [GPR7 and 8 agonist]
specificity of the marker DMR signal for the differentiation state [2]: specific to the differentiated ReN cells

orexin A (QPLPDCCRQKTCSCRLYELLHGAGNHAAGILTL; ends and bridges not checked; cysteine pairing not given here; UniProt O43612 34-66, looked up) [orexin receptor agonist]
specificity of the marker DMR signal for the differentiation state [2]: specific to the differentiated ReN cells

platelet growth factor
specificity of the marker DMR signal for the differentiation state [2]: non-specific to both the undifferentiated and differentiated ReN cells

substance P (RPKPQQFFGLM; ends and bridges not checked; UniProt P20366 58-68, looked up) [NKA receptor agonist]
specificity of the marker DMR signal for the differentiation state [2]: specific to the undifferentiated cells

vasoactive intestinal peptide (HSDAVFTDNYTRLRKQMAVKKYLNSILN; ends and bridges not checked; UniProt P01282 125-152, looked up) [VIP receptor agonist]
specificity of the marker DMR signal for the differentiation state [2]: specific to the differentiated ReN cells
